Data from patent publication US20220008445A1, “METHODS, COMPOSITIONS, AND KITS FOR TREATING OCULAR DISEASES” (ELOXX PHARMACEUTICALS, priority 2018, published 2022).

Legend:
retina [1] = settings: have been reported; cited from earlier work
retinal cultures = test: Cytotoxicity in retinal cultures (staining profile); type: cell-based
Method: The cytotoxicity of NB30, NB54, NB84, NB122, NB124, and NB127 was evaluated in retinal cultures.

[2] = system: USH1F nonsense mutations R3X and R245X; test: Cell-Free Read-through Assay; type: biochemical; settings: FIG. 5A-B
Method: Cell-Free Read-through Assay. NB84 and NB127 were evaluated for their ability to induce read-through of the USH1F nonsense mutations R3X and R245X in a cell-free assay.

retina [3] = settings: for tolerability in gross ophthalmological examination and ERG compared to gentamicin: in vivo
Method: Biocompatibility and pharmacokinetic/pharmacodynamic profiles were evaluated for the aminoglycosides NB30, NB54/Compound 37, NB84/ELX-03, NB122/ELX-01, NB124/ELX-02, NB127/ELX-04, NB118/ELX-05, and NB128/ELX-06 in patient-derived cell lines and rodent animal models.
NB122 was well-tolerated compared to gentamicin in gross ophthalmological examination and ERG when administered by intravitreal injection.

USH1 nonsense mutations = test: In vitro cell-based read-through assay in HEK293 cells; settings: greater at higher concentrations, FIG. 6A-B
Text: In Vitro Cell-Based Assay. NB84 and NB127 were next tested in an in vitro assay using HEK293 cells to determine if similar read-through activity could be achieved in a cellular environment.

[4] = system: USH1F PCDH15 mutation R3X; test: Plasmid-based dual-luciferase read-through assay in HeLa cells, USH1F; type: cell-based; settings: for read-through of the USH1F mutation (in words): FIG. 8, FIG. 9; for dose-dependence of read-through induction, USH1F: FIG. 11
Method: (§1) An in vitro assay was then performed to determine if the same dose-dependent suppression could be achieved using other aminoglycosides. This in vitro assay utilized a plasmid-based, dual-luciferase approach. Short sequences that include Usher syndrome nonsense mutations were cloned into the linker region between Renilla and Firefly luciferase reporters, and plasmids were transiently transfected into HeLa cells to evaluate compound read-through. This model permits an early assessment of read-through potential against disease-specific mutations. Read-through activity was evaluated using USH2A and USH1F mutations.
(§2) NB122, NB124, NB84, NB127, NB118, NB128, NB124-MeS, and NB157 were evaluated for their ability to induce read-through on the USH2A mutation R626X and the USH1F PCDH15 mutation R3X.

USH2A mutation R626X = test: Plasmid-based dual-luciferase read-through assay in HeLa cells, USH2A; type: cell-based; settings: for read-through of the USH2A mutation (in words): FIG. 7, FIG. 9; for dose-dependence of read-through induction, USH2A: FIG. 10
Method: as §1, §2

[5] = system: R213X nonsense mutation in human TP53; test: Protein Based Read-through Assay in DMS114 cells; type: cell-based; settings: Western blot and immunofluorescence
Method: Protein Based Read-through Assay. NB122, NB124, NB84, NB118, and NB128 were evaluated for their protein-based read-through potential in DMS114 cells, which harbor a native R213X nonsense mutation in human TP53 as depicted in the scheme shown in FIG. 12. […] A high-throughput immunofluorescence assay measuring p53 localized at the nucleus is shown in FIG. 15 with dose-dependence studies for NB84. Lastly, FIG. 16 provides full dose response curves for NB122, NB124, NB84, NB118, and NB128 with the error bars representing a standard deviation (SD).

[6] = system: nonsense mutation R262X in the Oca2 gene; test: Read-through after intravitreal injection in albino mice (melanin production); type: in vivo, SJL/J mice; settings: for in vivo read-through as compared to gentamicin: injection to the posterior segment (back of eye); for melanin production in the eye: intravitreal injection, FIGS. 20-21
Method: Read-through activity following intravitreal injection of aminoglycosides was evaluated in animal models.
Albino mice (SJL/J mice) harbor the nonsense mutation R262X in the Oca2 gene resulting in an absence of melanin production in melanocytes. This model provides an initial evaluation of compound availability to the back of the eye when administered by intravitreal injection—higher concentrations of melanin correspond to greater read-through activity.
NB122, NB124, NB124-MeS, NB84, NB118, NB127, NB128, and NB157 were evaluated for read-through activity following intravitreal injection into SJL/J mice. FIGS. 20-21 show intravitreal read-through for each compound relative to gentamicin.

[7] = system: USH1C nonsense mutation R155X; test: Usher protein expression, USH1C nonsense mutation; type: cell-based; settings: FIG. 17
Method: The ability of these compounds to induce protein expression of nonsense mutations associated with Usher syndrome was evaluated using USH1C nonsense mutations.

[8] = system: healthy New Zealand white rabbits; test: Single-dose intravitreal tolerability, ERG and histology; type: in vivo
Method: Biocompatibility and pharmacokinetic/pharmacodynamic profiles were then evaluated for intravitreal injection of NB118 versus gentamicin. Single-dose tolerability was screened in healthy New Zealand white rabbits and evaluated based on ERG and histology. Dark-adapted oscillatory potential and photopic b-wave amplitudes were measured pre- and nine-days post a single 300 μg or 600 μg injection of aminoglycoside as shown in FIG. 2.
Results were confirmed by a veterinary pathologist.

[9] = Intravitreal pharmacokinetic profile, retina exposure; type: in vivo, Dutch-Belted rabbits; settings: 100 μg intravitreal
Method: Pharmacokinetic profiles of NB124 were evaluated using healthy Dutch-Belted rabbits. Rabbits were injected with 100 μg of NB124 and followed for 192 hours. […] Overall, the results support a favorable therapeutic index for intravitreal administration of any of NB124.

[10] = intravitreal, human; cited from earlier work
[11] = nine days after single 300 μg or 600 μg intravitreal injection

Row | Compound | tolerability in gross ophthalmological examination and ERG compared to gentamicin (retina [3]) | read-through of the USH1F mutation (in words) [4] | dose-dependence of read-through induction, USH1F [4] | read-through of the USH2A mutation (in words) (USH2A mutation R626X) | dose-dependence of read-through induction, USH2A (USH2A mutation R626X) | nonsense mutation read-through as measured by protein expression (full length p53) [5] | in vivo read-through as compared to gentamicin [6] | melanin production in the eye [6] | protein expression versus gentamicin and vehicle control [7] | also measured
1 | CN[C@@H]1[C@@H](O)[C@@H](O[C@@H]2[C@@H](O)[C@H](O[C@H]3O[C@H]([C@@H](C)O)[C@@H](O)[C@H](O)[C@H]3N)[C@@H](N)C[C@H]2N)OC[C@]1(C)O [Compound G418, G418] | – | – | – | – | – | – | – | – | – | reported retinal toxicities (retina [1]): dose-limiting retinal toxicities
2 | NCC[C@H](O)C(=O)N[C@@H]1CC(N)[C@@H](O[C@H]2OC(CO)[C@@H](O)[C@H](O)C2N)[C@H](O[C@@H]2O[C@H](CN)[C@H](O)C2O)C1O (stereo partly shown) [NB54] | – | – | – | – | – | – | – | – | – | staining profile versus untreated retinal cultures (retinal cultures): did not significantly differ
3 | C[C@@H](O)C1O[C@H](O[C@@H]2C(N)C[C@@H](NC(=O)[C@@H](O)CCN)[C@@H](O)C2O[C@@H]2O[C@H](CN)[C@H](O)C2O)[C@@H](N)C(O)[C@@H]1O (stereo partly shown) [NB84] | well-tolerated | significant read-through | dose-dependence | significant read-through | dose-dependence | dose-dependent | significant read-through | dose-dependent increase | increased protein expression | read-through as compared to G418 and gentamicin [2]: significant read-through; in vivo ocular tolerance, intravitreal doses (retina [3]): up to 600 μg/mL; read-through in cells (USH1 nonsense mutations): significant read-through
4 | CC(N)C1OC(OC2C(O)C(N)CC(N)C2OC2OC(CO)C(O)C(O)C2N)C(O)C1O (stereo not shown) [NB118] | well-tolerated | significant read-through | dose-dependence | significant read-through | dose-dependence | dose-dependent | significant read-through | dose-dependent increase | – | in vivo ocular tolerance, intravitreal doses (retina [3]): up to 600 μg/mL; anatomic changes in retina, H&E stained sections ([8]; rabbit, in vivo): did not produce adverse anatomic changes; impact on ERG amplitudes or implicit times ([8]; rabbit, in vivo): minimal to no impact
5 | CC(N)C1OC(OC2C(O)C(NC(=O)C(O)CCN)CC(N)C2OC2OC(CO)C(O)C(O)C2N)C(O)C1O (stereo not shown) [NB122] | well-tolerated | – | dose-dependence | – | dose-dependence | dose-dependent | significant read-through | dose-dependent increase | increased protein expression | in vivo ocular tolerance, intravitreal doses (retina [3]): up to 600 μg/mL; R3X read-through rate ([4]; R3X): 2.7%; increase over native read-through ([4]; R3X): 2.5 fold
6 | CC(N)C1OC(OC2C(O)C(NS(C)(=O)=O)CC(N)C2OC2OC(C(C)O)C(O)C(O)C2N)C(O)C1O (stereo not shown) [NB124-MeS] | well-tolerated | significant read-through | – | significant read-through | – | – | significant read-through | dose-dependent increase | – | –
7 | C[C@H](N)[C@H]1O[C@@H](O[C@@H]2[C@@H](O)[C@H](N)C[C@H](N)[C@H]2O[C@H]2O[C@H]([C@@H](C)O)[C@@H](O)[C@H](O)[C@H]2N)[C@H](O)[C@@H]1O [NB124] | well-tolerated | – | dose-dependence | – | dose-dependence | dose-dependent | significant read-through | dose-dependent increase | increased protein expression | time for which retina exposure covers the compound's IC50 [9]: over 48 hours; time of peak retina exposure ([9]; followed for 192 hours): 3 h
8 | CC(N)C1OC(OC2C(O)C(NC(=O)C(O)CCN)CC(N)C2OC2OC(C(C)O)C(O)C(O)C2N)C(O)C1O (stereo not shown) [NB127] | well-tolerated | significant read-through | – | significant read-through | – | – | significant read-through | dose-dependent increase | increased protein expression | read-through as compared to G418 and gentamicin [2]: significant read-through; read-through in cells (USH1 nonsense mutations): significant read-through
9 | CC(N)C1OC(OC2C(O)C(NC(=O)C(O)CCN)CC(N)C2OC2OC(C(C)O)C(O)C(O)C2N)C(O)C1O (stereo not shown) [NB128] | well-tolerated | significant read-through | dose-dependence | significant read-through | dose-dependence | dose-dependent | significant read-through | dose-dependent increase | – | –
10 | CCCNC1CC(N)C(OC2OC(C(C)O)C(O)C(O)C2N)C(OC2OC(CN)C(O)C2O)C1O (stereo not shown) [NB147] | well-tolerated | – | – | – | – | – | significant read-through | – | – | –
11 | C[C@H](N)[C@H]1O[C@@H](O[C@@H]2C(O)[C@H](N)CC(N)[C@H]2O[C@H]2OC([C@H](O)CO)[C@@H](O)[C@H](O)C2N)C(O)[C@H]1O (stereo partly shown) [NB157] | – | significant read-through | – | significant read-through | – | – | – | dose-dependent increase | – | –
12 | gentamicin [reference compound] | – | – | – | – | – | – | – | – | – | half-life [10]: 40 to 60 h; reported retinal toxicities (retina [1]): dose-limiting retinal toxicities; melanin ([6]; 0.2 μg intravitreal, t-test vs. vehicle control): increases melanin; dose at which toxicity observed ([6]; intravitreal, pilot study FIG. 19): 0.5 µg; dark-adapted oscillatory potential peaks (ERG) [8, 11]: ablation; photopic b-wave potentials (ERG) [8, 11]: moderate reduction
